# Data published in patent publication US20080188498A1, “Pyridopyrimidinone compounds with antimalarial activity” (Radix Pharmaceuticals, Inc., priority 2007, published 2008).
# Key:
# [1] = tested on: Plasmodium berghei KBG-173; experiment: Blood schizontocidal test, oral dosing, P. berghei in mice; type: in vivo, mouse; conditions: days 3-5 postinfection
# Procedure: Drugs were mixed in 0.5% hydroxycellulose 0.1% Tween 80 and administered orally b.i.d. on days 3, 4 and 5 postinfection. CD-1 male or female mice, 5 weeks of age, were infected with 5×10^4 parasitized erythrocytes of Plasmodium berghei KBG-173 mm strain. Blood films were taken on day +6 and weekly thereafter until day +60. Parasitemias were calculated and SD90 value (dose suppressing 90% of the parasites in treated groups compared with the infected non-treated controls) on day +6 postinfection. Mortality data was tabulated for 60 days at which time all mice surviving that were blood film negative were considered cured. […]
# [2] = tested on: mouse; conditions: strong liver toxicity; cited from earlier work
# [3] = tested on: P. berghei; experiment: Suppressive blood schizontocidal test, single subcutaneous dose, P. berghei in mice; type: in vivo, mouse; conditions: 72 h after infection
# Procedure: Mice were treated with a single dose of the compound administered subcutaneously 72 h. after infection. Number of cures is the number of mice surviving, out of five, 60 days postinfection.
# [4] = tested on: Plasmodium berghei KBG-173; experiment: Prophylactic test, oral, P. berghei in mice; type: in vivo, mouse
# Excerpt: Drugs were mixed in 0.5% hydroxycellulose 0.1% Tween 80 and administered orally b.i.d. either on day 5, 4, 3, 2, or 1 prior to the infection or 1 or 2 days postinfection. CD-I male or female mice, 5 weeks of age, were infected with 5×10^4 parasitized erythrocytes of Plasmodium berghei KBG-173 mm strain. Blood films were taken on day +6 and weekly thereafter until day+30. […]
# [5] = oral dose 0.25 mg/kg/day (total dose 0.75 mg/kg)
# [6] = oral dose 1.0 mg/kg/day (total dose 3.0 mg/kg)
# [7] = oral dose 4.0 mg/kg/day (total dose 12 mg/kg)
# [8] = oral dose 16 mg/kg/day (total dose 48 mg/kg)
# [9] = oral dose 64 mg/kg/day (total dose 192 mg/kg)
# [10] = single subcutaneous dose 1 mg/kg
# [11] = single subcutaneous dose 2 mg/kg
# [12] = single subcutaneous dose 4 mg/kg
# [13] = single subcutaneous dose 8 mg/kg
# [14] = single subcutaneous dose 16 mg/kg
# [15] = single subcutaneous dose 32 mg/kg
# [16] = single subcutaneous dose 64 mg/kg
# [17] = single subcutaneous dose 128 mg/kg
# [18] = single dose of 0.5 mg/kg, day of treatment 1
# [19] = single dose of 0.5 mg/kg, day of treatment 2
# [20] = single dose of 0.5 mg/kg, day of treatment −1
# [21] = single dose of 0.5 mg/kg, day of treatment −2
smiles,measurement,setting,value
"O=C(C[C@H]1NCCC[C@@H]1O)Cn1cnc2ccccc2c1=O [Febrifugine, reference compound]",Mice surviving 60 days/Mice infected and treated,[1]; [5],1/7
same,Mice surviving 60 days/Mice infected and treated,[1]; [6],2/7
same,Mice surviving 60 days/Mice infected and treated,[1]; [7],5/7
same,Mice surviving 60 days/Mice infected and treated,[1]; [8],0/7
same,Mice surviving 60 days/Mice infected and treated,[1]; [9],0/7
same,Dosage at which mouse toxic death occurred,[2],10 mg/kg/day
"O=C(CC1NCCC1O)Cn1cnc2ccncc2c1=O (centres unmarked) [Compound II, 3-[3-(3-Hydroxy-pyrrolidin-2-yl)-2-oxo-propyl]-3H-pyrido[4,3-d]pyrimidin-4-one]",Mice surviving 60 days/Mice infected and treated,[1]; [5],7/7
same,Mice surviving 60 days/Mice infected and treated,[1]; [6],7/7
same,Mice surviving 60 days/Mice infected and treated,[1]; [7],7/7
same,Mice surviving 60 days/Mice infected and treated,[1]; [8],7/7
same,Mice surviving 60 days/Mice infected and treated,[1]; [9],7/7
same,Mice surviving 60 days/Mice infected and treated,[3]; [10],4/5
same,Mice surviving 60 days/Mice infected and treated,[3]; [11],5/5
same,Mice surviving 60 days/Mice infected and treated,[3]; [12],5/5
same,Mice surviving 60 days/Mice infected and treated,[3]; [13],5/5
same,Mice surviving 60 days/Mice infected and treated,[3]; [14],5/5
same,Mice surviving 60 days/Mice infected and treated,[3]; [15],5/5
same,Mice surviving 60 days/Mice infected and treated,[3]; [16],5/5
same,Mice surviving 60 days/Mice infected and treated,[3]; [17],5/5
same,Mice surviving day 60/Mice infected and treated,[4]; [18],5/5
same,Mice surviving day 60/Mice infected and treated,[4]; [19],5/5
same,Mice surviving day 60/Mice infected and treated,[4]; [20],5/5
same,Mice surviving day 60/Mice infected and treated,[4]; [21],5/5
"O=C(CC1NCCC1O)Cn1cnc2cccc(C(F)(F)F)c2c1=O (centres unmarked) [Compound V, 3-[3-(3-Hydroxy-pyrrolidin-2-yl)-2-oxo-propyl]-5-trifluoromethyl-3H-quinazolin-4-one]",Mice surviving 60 days/Mice infected and treated,[1]; [5],7/7
same,Mice surviving 60 days/Mice infected and treated,[1]; [6],7/7
same,Mice surviving 60 days/Mice infected and treated,[1]; [7],7/7
same,Mice surviving 60 days/Mice infected and treated,[1]; [8],7/7
same,Mice surviving 60 days/Mice infected and treated,[1]; [9],7/7
same,Mice surviving 60 days/Mice infected and treated,[3]; [10],4/5
same,Mice surviving 60 days/Mice infected and treated,[3]; [11],5/5
same,Mice surviving 60 days/Mice infected and treated,[3]; [12],5/5
same,Mice surviving 60 days/Mice infected and treated,[3]; [13],5/5
same,Mice surviving 60 days/Mice infected and treated,[3]; [14],5/5
same,Mice surviving 60 days/Mice infected and treated,[3]; [15],5/5
same,Mice surviving 60 days/Mice infected and treated,[3]; [16],5/5
same,Mice surviving 60 days/Mice infected and treated,[3]; [17],5/5
same,Mice surviving day 60/Mice infected and treated,[4]; [18],5/5
same,Mice surviving day 60/Mice infected and treated,[4]; [19],5/5
same,Mice surviving day 60/Mice infected and treated,[4]; [20],5/5
same,Mice surviving day 60/Mice infected and treated,[4]; [21],5/5
"O=C(CC1NCCC1O)Cn1cnc2cccnc2c1=O (centres unmarked) [Compound I, 3-[3-(3-Hydroxy-pyrrolidin-2-yl)-2-oxo-propyl]-3H-pyrido[3,2-d]pyrimidin-4-one]",Mice surviving 60 days/Mice infected and treated,[1]; [5],7/7
same,Mice surviving 60 days/Mice infected and treated,[1]; [6],7/7
same,Mice surviving 60 days/Mice infected and treated,[1]; [7],7/7
same,Mice surviving 60 days/Mice infected and treated,[1]; [8],7/7
same,Mice surviving 60 days/Mice infected and treated,[1]; [9],7/7
same,Mice surviving 60 days/Mice infected and treated,[3]; [10],4/5
same,Mice surviving 60 days/Mice infected and treated,[3]; [11],5/5
same,Mice surviving 60 days/Mice infected and treated,[3]; [12],5/5
same,Mice surviving 60 days/Mice infected and treated,[3]; [13],5/5
same,Mice surviving 60 days/Mice infected and treated,[3]; [14],5/5
same,Mice surviving 60 days/Mice infected and treated,[3]; [15],5/5
same,Mice surviving 60 days/Mice infected and treated,[3]; [16],5/5
same,Mice surviving 60 days/Mice infected and treated,[3]; [17],5/5
same,Mice surviving day 60/Mice infected and treated,"[4]; oral, day of treatment 1, dose 0.5 mg/kg",5/5
same,Mice surviving day 60/Mice infected and treated,"[4]; oral, day of treatment 1, dose 2 mg/kg",5/5
same,Mice surviving day 60/Mice infected and treated,"[4]; oral, day of treatment 1, dose 8 mg/kg",5/5
same,Mice surviving day 60/Mice infected and treated,"[4]; oral, day of treatment 1, dose 32 mg/kg",5/5
same,Mice surviving day 60/Mice infected and treated,"[4]; oral, day of treatment 2, dose 0.5 mg/kg",5/5
same,Mice surviving day 60/Mice infected and treated,"[4]; oral, day of treatment 2, dose 2 mg/kg",5/5
same,Mice surviving day 60/Mice infected and treated,"[4]; oral, day of treatment 2, dose 8 mg/kg",5/5
same,Mice surviving day 60/Mice infected and treated,"[4]; oral, day of treatment 2, dose 32 mg/kg",5/5
same,Mice surviving day 60/Mice infected and treated,"[4]; oral, day of treatment −1, dose 0.5 mg/kg",5/5
same,Mice surviving day 60/Mice infected and treated,"[4]; oral, day of treatment −1, dose 2 mg/kg",5/5
same,Mice surviving day 60/Mice infected and treated,"[4]; oral, day of treatment −1, dose 8 mg/kg",5/5
same,Mice surviving day 60/Mice infected and treated,"[4]; oral, day of treatment −1, dose 32 mg/kg",5/5
same,Mice surviving day 60/Mice infected and treated,"[4]; oral, day of treatment −2, dose 0.5 mg/kg",5/5
same,Mice surviving day 60/Mice infected and treated,"[4]; oral, day of treatment −2, dose 2 mg/kg",5/5
same,Mice surviving day 60/Mice infected and treated,"[4]; oral, day of treatment −2, dose 8 mg/kg",5/5
same,Mice surviving day 60/Mice infected and treated,"[4]; oral, day of treatment −2, dose 32 mg/kg",5/5
same,Mice surviving day 60/Mice infected and treated,"[4]; oral, day of treatment −3, dose 0.5 mg/kg",0/5
same,Mice surviving day 60/Mice infected and treated,"[4]; oral, day of treatment −3, dose 2 mg/kg",5/5
same,Mice surviving day 60/Mice infected and treated,"[4]; oral, day of treatment −3, dose 8 mg/kg",5/5
same,Mice surviving day 60/Mice infected and treated,"[4]; oral, day of treatment −3, dose 32 mg/kg",5/5
same,Protection from malaria (oral prophylactic activity),[4]; single dose of 0.5 mg/kg within 2 days preinfection through 2 days post infection,completely protected from malaria
"O=C(CC1NCCC1O)Cn1cnc2ccc(F)c(F)c2c1=O (centres unmarked) [Compound IV, 5,6-Difluoro-3-[3-(3-hydroxy-pyrrolidin-2-yl)-2-oxo-propyl]-3H-quinazolin-4-one]",Mice surviving 60 days/Mice infected and treated,[1]; [5],6/7
same,Mice surviving 60 days/Mice infected and treated,[1]; [6],7/7
same,Mice surviving 60 days/Mice infected and treated,[1]; [7],7/7
same,Mice surviving 60 days/Mice infected and treated,[1]; [8],7/7
same,Mice surviving 60 days/Mice infected and treated,[1]; [9],7/7
same,Mice surviving 60 days/Mice infected and treated,[3]; [10],4/5
same,Mice surviving 60 days/Mice infected and treated,[3]; [11],5/5
same,Mice surviving 60 days/Mice infected and treated,[3]; [12],5/5
same,Mice surviving 60 days/Mice infected and treated,[3]; [13],5/5
same,Mice surviving 60 days/Mice infected and treated,[3]; [14],5/5
same,Mice surviving 60 days/Mice infected and treated,[3]; [15],5/5
same,Mice surviving 60 days/Mice infected and treated,[3]; [16],5/5
same,Mice surviving 60 days/Mice infected and treated,[3]; [17],5/5
same,Mice surviving day 60/Mice infected and treated,[4]; [18],5/5
same,Mice surviving day 60/Mice infected and treated,[4]; [19],5/5
same,Mice surviving day 60/Mice infected and treated,[4]; [20],5/5
same,Mice surviving day 60/Mice infected and treated,[4]; [21],5/5
"CCN(CC)CCCC(C)Nc1ccnc2cc(Cl)ccc12 (centres unmarked) [Chloroquine, reference compound]",Mice surviving 60 days/Mice infected and treated,[1]; [5],0/7
same,Mice surviving 60 days/Mice infected and treated,[1]; [6],0/7
same,Mice surviving 60 days/Mice infected and treated,[1]; [7],2/7
same,Mice surviving 60 days/Mice infected and treated,[1]; [8],4/7
same,Mice surviving 60 days/Mice infected and treated,[1]; [9],0/7
"O=C(CC1NCCC1O)Cn1cnc2cccc(F)c2c1=O (centres unmarked) [Compound III, 5-Fluoro-3-[3-(3-hydroxy-pyrrolidin-2-yl)-2-oxo-propyl]-3H-quinazolin-4-one]",Mice surviving 60 days/Mice infected and treated,[1]; [5],5/7
same,Mice surviving 60 days/Mice infected and treated,[1]; [6],6/7
same,Mice surviving 60 days/Mice infected and treated,[1]; [7],7/7
same,Mice surviving 60 days/Mice infected and treated,[1]; [8],7/7
same,Mice surviving 60 days/Mice infected and treated,[1]; [9],7/7
same,Mice surviving 60 days/Mice infected and treated,[3]; [10],4/5
same,Mice surviving 60 days/Mice infected and treated,[3]; [11],5/5
same,Mice surviving 60 days/Mice infected and treated,[3]; [12],5/5
same,Mice surviving 60 days/Mice infected and treated,[3]; [13],5/5
same,Mice surviving 60 days/Mice infected and treated,[3]; [14],5/5
same,Mice surviving 60 days/Mice infected and treated,[3]; [15],5/5
same,Mice surviving 60 days/Mice infected and treated,[3]; [16],5/5
same,Mice surviving 60 days/Mice infected and treated,[3]; [17],5/5
same,Mice surviving day 60/Mice infected and treated,[4]; [18],5/5
same,Mice surviving day 60/Mice infected and treated,[4]; [19],5/5
same,Mice surviving day 60/Mice infected and treated,[4]; [20],5/5
same,Mice surviving day 60/Mice infected and treated,[4]; [21],5/5
